Patent US11795204B2 (Zealand Pharma A/S, priority 2012, dated 2023)
Square brackets hold non-standard residues; d marks the D form. Peptide text beside a SMILES is read from it. Dab = NCC[C@H](N)C(=O)O; Aib = CC(C)(N)C(=O)O

Experiments:
[1] = Chemical stability assessment (RP-HPLC normalized purity); assay type: physicochemical; conditions: for Normalized purity pH 4.0 after 14 days: 1 mg/ml in 50 mM acetate buffer pH 4.0, 40° C.; for Normalized purity pH 7.5 after 14 days: 1 mg/ml in 50 mM phosphate buffer pH 7.5, 40° C.
Protocol: Samples were placed in glass vials and incubated at 40° C. The samples were analysed by reverse-phase HPLC on a C18 column with gradient elution using an acetonitrile/trifluoroacetic acid/water eluent system. The area-percentage (area-%) of the main peak after incubation time T=t (relative to time T=0) was detected by UV spectrometry at 220 nm. The purity was first determined as follows: Purity(area-%)=(area of main peak/total area of all peaks)×100. […] Normalized purity values in Table 2 were determined after 14 days of incubation.

[2] = target: T1, human Glucagon-R (Homo sapiens, UniProt P47871); test: Glucagon receptor assay (cAMP induction, AlphaScreen); assay type: cell-based; conditions: HEK293 cells expressing the human Glucagon-R, 15 min at 37° C., read-out: GCG-R EC50 in vitro
T1 construct: expressed in transfected cells
T1 sequence (P47871 26-477): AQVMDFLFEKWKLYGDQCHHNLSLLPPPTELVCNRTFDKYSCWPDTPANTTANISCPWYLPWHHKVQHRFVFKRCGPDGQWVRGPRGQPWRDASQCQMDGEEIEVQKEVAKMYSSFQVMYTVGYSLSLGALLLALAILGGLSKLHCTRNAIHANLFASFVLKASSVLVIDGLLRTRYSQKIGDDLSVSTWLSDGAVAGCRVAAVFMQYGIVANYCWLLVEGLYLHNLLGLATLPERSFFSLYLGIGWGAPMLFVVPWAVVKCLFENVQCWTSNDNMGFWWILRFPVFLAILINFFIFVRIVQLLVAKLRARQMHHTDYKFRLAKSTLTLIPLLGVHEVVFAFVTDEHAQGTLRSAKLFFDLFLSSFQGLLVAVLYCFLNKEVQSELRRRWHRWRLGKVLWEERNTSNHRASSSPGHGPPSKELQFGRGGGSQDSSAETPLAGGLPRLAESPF
Protocol: The 5′-end primers additionally encoded a near-Kozak consensus sequence to ensure efficient translation. […] 48 hr after transfection, cells were seeded for limited dilution cloning and selected with 1 mg/ml G418 in the culture medium.
On the day of analysis, growth medium was removed and the cells were washed once with […] of the included Assay buffer with IBMX. Cells were incubated in […] Assay buffer/IBMX containing increasing concentrations of test peptides for 15 min at 37° C. Then the peptides/Assay buffer was removed and cells were lysed by addition of […] Lysis buffer pr. well and incubation for at least 10 min at room temperature. From each well […] cell lysate was transferred to a 384-well OptiPlate and mixed with Donor and Acceptor beads and incubated for 1 h at room temperature. The cAMP content was measured on an Envision plate reader.

[3] = physchem; conditions: pH 7.5
Protocol: A stock solution of the test peptide (2 mg/ml; determined by measurement of the absorption of the solution at 280 nm, and using the theoretical extension coefficient based on the content of tryptophan and tyrosine in the peptide) in demineralized water adjusted to pH 2.5 with HCl was prepared, and aliquots were diluted 1:1 in 100 mM acetate buffer (pH 4.0) and 100 mM phosphate buffer (pH 7.5), respectively, and loaded in a standard flat-bottom, non-sterile 96-well UV Microplate. The absorbance of samples (single samples, n=1) at 280 and 325 nm was measured in an absorbance-based plate reader, which was preheated to ambient temperature.

Molecule	Normalized purity pH 4.0 after 14 days [1] [%]	Normalized purity pH 7.5 after 14 days [1] [%]	EC50 [2] [nM]	solubility [3] [µg/mL]
CC(C)C[C@H](NC(=O)[C@H](Cc1c[nH]c2ccccc12)NC(=O)[C@H](CCCCN)NC(=O)[C@@H](NC(=O)[C@H](Cc1ccccc1)NC(=O)[C@H](CO)NC(=O)[C@H](CCC(=O)O)NC(=O)[C@H](C)NC(=O)[C@H](CCCNC(=N)N)NC(=O)[C@H](C)NC(=O)C(C)(C)NC(=O)[C@H](CC(=O)O)NC(=O)[C@H](CC(C)C)NC(=O)[C@H](Cc1ccc(O)cc1)NC(=O)[C@H](CCCCN)NC(=O)[C@H](CO)NC(=O)[C@H](Cc1ccc(O)cc1)NC(=O)[C@H](CC(=O)O)NC(=O)[C@H](CO)NC(=O)[C@@H](NC(=O)[C@H](Cc1ccccc1)NC(=O)[C@@H](NC(=O)[C@@H](C)NC(=O)[C@H](CCC(N)=O)NC(=O)[C@H](CO)NC(=O)[C@@H](N)Cc1c[nH]cn1)[C@@H](C)O)[C@@H](C)O)C(C)C)C(=O)N[C@@H](CCC(=O)O)C(=O)N[C@@H](CO)C(=O)N[C@H](C(=O)O)[C@@H](C)O [Compound 22] (H-HSQ[dA]TFTSDYSKYLD[Aib]ARAESFVKWLEST-OH)	91.1	95.3	0.024	≥ 1000
CC(C)C[C@H](NC(=O)[C@H](Cc1c[nH]c2ccccc12)NC(=O)[C@H](CCCCN)NC(=O)[C@@H](NC(=O)[C@H](Cc1ccccc1)NC(=O)[C@H](CO)NC(=O)[C@H](CCC(=O)O)NC(=O)[C@H](C)NC(=O)[C@H](CCCNC(=N)N)NC(=O)[C@H](CCCNC(=N)N)NC(=O)C(C)(C)NC(=O)[C@H](CC(=O)O)NC(=O)[C@H](CC(C)C)NC(=O)[C@H](Cc1ccc(O)cc1)NC(=O)[C@H](CCCCN)NC(=O)[C@H](CO)NC(=O)[C@H](Cc1ccc(O)cc1)NC(=O)[C@H](CC(=O)O)NC(=O)[C@H](CO)NC(=O)[C@@H](NC(=O)[C@H](Cc1ccccc1)NC(=O)[C@@H](NC(=O)CNC(=O)[C@H](CCC(N)=O)NC(=O)[C@H](CO)NC(=O)[C@@H](N)Cc1c[nH]cn1)[C@@H](C)O)[C@@H](C)O)C(C)C)C(=O)N[C@@H](CCC(=O)O)C(=O)N[C@@H](CO)C(=O)N[C@H](C(=O)O)[C@@H](C)O [Compound 25] (H-HSQGTFTSDYSKYLD[Aib]RRAESFVKWLEST-OH)	93.8	89.8	0.0066	≥ 1000
H-HSQGTFTSDYSKYLESARAESFVKWLEST-OH [Compound 16]	89.1		0.39	≥ 1000
CC(=O)NCC[C@H](NC(=O)[C@H](CO)NC(=O)[C@@H](N)Cc1c[nH]cn1)C(=O)NCC(=O)N[C@H](C(=O)N[C@@H](Cc1ccccc1)C(=O)N[C@H](C(=O)N[C@@H](CO)C(=O)N[C@@H](CC(=O)O)C(=O)N[C@@H](Cc1ccc(O)cc1)C(=O)N[C@@H](CO)C(=O)N[C@@H](CCCCN)C(=O)N[C@@H](Cc1ccc(O)cc1)C(=O)N[C@@H](CC(C)C)C(=O)N[C@@H](CC(=O)O)C(=O)NC(C)(C)C(=O)N[C@@H](C)C(=O)N[C@@H](CCCNC(=N)N)C(=O)N[C@@H](C)C(=O)N[C@@H](CCC(=O)O)C(=O)N[C@@H](CO)C(=O)N[C@@H](Cc1ccccc1)C(=O)N[C@H](C(=O)N[C@@H](CCCCN)C(=O)N[C@@H](Cc1c[nH]c2ccccc12)C(=O)N[C@@H](CC(C)C)C(=O)N[C@@H](CCC(=O)O)C(=O)N[C@@H](CO)C(=O)N[C@H](C(N)=O)[C@@H](C)O)C(C)C)[C@@H](C)O)[C@@H](C)O [Compound 24] (H-HS[Dab](Ac)GTFTSDYSKYLD[Aib]ARAESFVKWLEST-NH2)	92.8	94.4	0.0078	≥ 1000
